Results published in patent US20210009673A1, “METHODS FOR REGULATING BREAST CANCERS” (priority 2018, published 2021).

What was measured:
Akt = assay: phosphorylation of Akt in PTN-stimulated HUVS cells; type: cell-based, human; settings: cells preincubated with EGFR inhibitor; PTN 2-20 minutes
Protocol: FIG. 11: FIG. 11 illustrates: human umbilical vein stromal cells not stimulated or stimulated with 50 ng/ml of PTN for 2, 5, 10 or 20 minutes were used to prepare cell lysates that were analyzed in Western blots probed with anti-phospho threonine 308 Akt (panel A), anti-phospho serine 473 Akt (panel B), anti-phospho-serine 9 GSK3β (panel C), anti-phospho-serine 33, 37 and […] β-catenin (panel D) or anti-actin antibodies (panel E). Akt was immunoprecipitated from those lysates using anti-Akt antibodies, incubated with a fusion peptide containing the 20 N-terminal amino acids of GSK3β and analyzed in Western-blots probed using anti-phospho-serine 9 GSK3β antibodies (panel F).
To pursue this pathway of nuclear import of β-catenin, HUVS cells were stimulated with PTN (50 ng/ml), lysed, and analyzed in Western blots probed with anti-phosphothreonine 308 Akt or anti-phosphoserine 473 Akt antibodies (FIG. 11, panel A and B). […]
The association of adaptor proteins that associate with specific phosphorylated sites in activated EGFR are responsible for the activation of phosphatidyl-inositol 3-kinase (PI3K). […] The cells were stimulated with PTN for 2, 5, 10, and 20 minutes, cell lysates were prepared, and the lysates were analyzed in Western blots probed with anti-phospho-Akt (Ser473), anti-phospho-GSKβ (Ser9), and anti-phospho-β-catenin (Thr42) antibodies. […]

T47D cells = assay: growth of T47D breast cancer cells in culture (viable cell count); type: cell-based, human
Protocol: (§1) FIG. 22: FIG. 22 illustrates: in (A), the c-met/ALK dual inhibitor PF2341066 blocks growth of MDA-MB-231 cells. MDA-MB-231 breast cancer cells were treated with 1 nM, 10 nM, 100 nM, and 1 μM PF2341066, the number of viable cells was counted for ten days, and represented as average with standard deviation. In (B), The c-met/ALK dual inhibitor PF2341066 blocks growth of T47D cells. T47D breast cancer cells were treated with 1 nM, 10 nM, 100 nM, and 1 μM PF2341066, the number of viable cells was counted for ten days, and represented as average with standard deviation. In (C), The ALK inhibitor PF2341066 delays MDA-MB-231 cell growth as tumors in flanks of nude mice. MDA-MB-231 cells were injected in flanks of nude mice. The mice were divided in two groups, which were given 50 mg/kg PF2341066 daily by oral gavage or an equal volume of DMSO as control. Tumor size was measured daily and is represented as average tumor burden in each group.
(§2) The MDA-MB-231 (FIG. 22A) and T47D (FIG. 22B) cells were then treated with the ALK inhibitor PF2341066.
(§3) MDA-MB-231, MCF-7, and T47D cells were obtained from American Tissue Collection Center (ATCC) and grown in DMEM supplemented with 10% fetal bovine serum (FBS) and 1% penicillin/streptomycin at 37° C. in a 5% CO2 atmosphere. […]

MDA-MB-231 cells = assay: growth of MDA-MB-231 breast cancer cells in culture (viable cell count); type: cell-based, human
Protocol: as §1, §2, §3

[1] = system: MDA-MB-231 cell xenograft; assay: MDA-MB-231 xenograft growth in flanks of nude mice; type: in vivo; settings: 50 mg/kg daily oral gavage
Protocol: as §1, with “group. […]” for “group.”
Male athymic nude mice (8 weeks old, Cby.Cg-Foxn1nu) were used. […] The sites of injection were observed daily for tumor growth beginning 1 day after injection and tumor length (L) and width (W) were measured, and tumor volume was estimate using the formula (LXW2)/2.

β-catenin [2] = assay: tyrosine phosphorylation of β-catenin in PTN-stimulated U87MG cells; type: cell-based, human; settings: U87MG cells preincubated with inhibitor; 50 ng PTN/ml
Protocol: FIG. 1: FIG. 1 illustrates in (A) PTN stimulation of tyrosine phosphorylation of β-catenin in cells that express RPTPβ/ζ and ALK. COS7 cells transiently expressing ALK and RPTPβ/ζ were stimulated with 10 ng PTN/ml. Cell lysates were prepared and used to immunoprecipitate β-catenin. The immunoprecipitates were analyzed in Western blots probed with anti-phosphotyrosine antibodies. Lane 1, cells transfected with ALK that were not stimulated with PTN. Lane 2, cells transfected with ALK stimulated with PTN. Lane 3, cells transfected with empty vector not stimulated with PTN. Lane 4, cells transfected with empty vector stimulated with PTN. […] The immunoprecipitates were analyzed in Western blots probed with anti-phosphotyrosine antibodies. […] Cell lysates were used to immunoprecipitate β-catenin and the immunoprecipitates were analyzed in Western blots probed with anti-phospho-tyrosine antibodies and reprobed with anti-β-catenin antibodies. […] MCF-7 cells that stably express EGFR/RPTPβ/ζ not transfected with ALK were analyzed as above. […] Lysates of MCF-7 cells and lysates of MCF-7 cells stimulated with EGF were used to immunoprecipitate β-catenin and the immunoprecipitates were analyzed in Western blots probed with anti-phospho-tyrosine antibodies and separately with anti-β-catenin antibodies. […]

β-catenin [3] = assay: ubiquitination of β-catenin in HUVS cells (Rad23 capture); type: cell-based, human; settings: PTN-stimulated cells pre-incubated with proteasome inhibitor
Protocol: FIG. 12: FIG. 12 illustrates: human umbilical vein stromal cells not stimulated (lane 1) or stimulated with 50 ng/ml of PTN for 15 (lane 2), or 30 minutes (lane 3) were used to prepare cell lysates that were incubated with Rad23-conjugated agarose beads to pull-down ubiquitinated proteins and analyzed in Western-blots probed with anti-β-catenin antibodies (upper panel) and reprobed with anti-ubiquitin antibodies (lower panel). Cells pre-incubated with LY294002 were stimulated with PTN for 15 minutes (lane 4). Cells pre-incubated with lactacystin were stimulated with PTN for 15 minutes (lane 5).
Human umbilical vein stromal cells were lysed in a buffer prepared with 50 mM Tris, pH 7.2, 150 mM NaCl pH 7.5, 1% NP40, 0.25% sodium deoxicholate, Complete EDTA-free Protease Inhibitor Cocktail and 2 mM sodium orthovanadate. […] The beads were washed 4 times with lysis buffer and analyzed using Western blots.
β-catenin is rapidly degraded through the ubiquitin proteasome proteolytic pathway, thereby setting steady state levels of β-catenin by balancing its degradation with new synthesis of this key regulatory protein. […] Proteins captured with Rad23 Sepharose were eluted and analyzed in Western blots probed with anti-β-catenin antibodies (FIG. 12, upper panel) and the blots were reprobed with anti-ubiquitin antibodies (FIG. 12, lower panel). […]

β-catenin [4] = assay: tyrosine phosphorylation of β-catenin in MCF-7-EGFR/RPTPβ/ζ cells expressing ALK; type: cell-based
Protocol: FIG. 1: FIG. 1 illustrates in (A) PTN stimulation of tyrosine phosphorylation of β-catenin in cells that express RPTPβ/ζ and ALK. COS7 cells transiently expressing ALK and RPTPβ/ζ were stimulated with 10 ng PTN/ml. Cell lysates were prepared and used to immunoprecipitate β-catenin. The immunoprecipitates were analyzed in Western blots probed with anti-phosphotyrosine antibodies. Lane 1, cells transfected with ALK that were not stimulated with PTN. Lane 2, cells transfected with ALK stimulated with PTN. Lane 3, cells transfected with empty vector not stimulated with PTN. Lane 4, cells transfected with empty vector stimulated with PTN. In (B), ALK and RPTPβ/ζ, but not Src, are necessary for PTN to stimulate tyrosine phosphorylation of activation of β-catenin. U87MG cells and U87MG cells that had been transfected with an shRNA targeting either RPTPβ/ζ or ALK or preincubated with the src inhibitor PP2 were stimulated with 50 ng PTN/ml or not (control) and cell lysates used to immunoprecipitate β-catenin. The immunoprecipitates were analyzed in Western blots probed with anti-phosphotyrosine antibodies. […] Cell lysates were used to immunoprecipitate β-catenin and the immunoprecipitates were analyzed in Western blots probed with anti-phospho-tyrosine antibodies and reprobed with anti-β-catenin antibodies. […] MCF-7 cells that stably express EGFR/RPTPβ/ζ not transfected with ALK were analyzed as above. […] Lysates of MCF-7 cells and lysates of MCF-7 cells stimulated with EGF were used to immunoprecipitate β-catenin and the immunoprecipitates were analyzed in Western blots probed with anti-phospho-tyrosine antibodies and separately with anti-β-catenin antibodies. Lysates of MCF-7 cells transfected with ALK and stimulated with PTN, EGF or pervanadate were immunoprecipitated with anti-β-catenin antibodies and the immunoprecipitates were analyzed in Western blots probed with anti-phospho-tyrosine antibodies and separately with anti-β-catenin antibodies. […]

ALK = assay: tyrosine phosphorylation of ALK in MCF-7-EGFR/RPTPβ/ζ cells; type: cell-based; settings: EGF at 1 minute and at 5 minutes

COc1cc2ncnc(Nc3cccc(Cl)c3)c2cc1OC [AG1478, reference compound] was tested, and the “PTN-stimulated activation of Akt (phospho-Akt serine 473)” value (Akt) was “effectively prevented”.

With C[C@@H](Oc1cc(-c2cnn(C3CCNCC3)c2)cnc1N)c1c(Cl)ccc(F)c1Cl [PF2341066] the “proliferation of T47D cells” value (T47D cells; 1 nM-1 μM, ten days) was “dose-dependent block in proliferation”, the “reduction of T47D cell growth” value (T47D cells; 1 μM) was “about 13 fold” and the “proliferation of MDA-MB-231 cells” value (MDA-MB-231 cells; 1 nM-1 μM, ten days) was “dose-dependent block in proliferation”. For the same molecule, the “growth of MDA-MB-231 cells” value (MDA-MB-231 cells; 1 μM) was “effectively prevented growth”, the “reduction of tumor burden” value ([1]; day 22) was “about 3.5 fold” and the “reduction of tumor burden” value ([1]; end of the experiment) was “about 3 fold”.

With CC(C)(C)n1nc(-c2ccc(Cl)cc2)c2c(N)ncnc21 [PP2, reference compound] the “inhibition of PTN-stimulated tyrosine phosphorylation of β-catenin” value (β-catenin [2]) was “failed to inhibit”.

For CC(=O)N[C@@H](CSC(=O)[C@]1([C@@H](O)C(C)C)NC(=O)[C@H](C)[C@@H]1O)C(=O)O [lactacystin, reference compound], the “ubiquitinated β-catenin levels” value (β-catenin [3]) was “remained at the level in HUVS cells not stimulated with PTN”.

In the case of epidermal growth factor [EGF], the “increase in tyrosine phosphorylation of β-catenin” value (β-catenin [4]; 1 minute after stimulation with EGF) is reported as “about 11 fold”, the “tyrosine phosphorylation of β-catenin” value (β-catenin [4]; 5 minutes after stimulation with EGF) is reported as “Even higher levels” and the “tyrosine phosphorylation of ALK” value (ALK) is reported as “marked increase”.

With sodium pervanadate [reference compound] the “increase in tyrosine phosphorylation of β-catenin” value (β-catenin [4]; stimulated with sodium pervanadate) was “about 17 fold”.
